The text below walks through data of patent US8778952B2, “Method of reducing intraosseous hypertension” (priority 2007, dated 2014).

The assay deals with patient with severe arthritis in their knee. Description: Case observation: MRI and reported pain of a patient's arthritic knee before and after routine use of a phosphodiesterase inhibitor. The settings on record: one patient, 50 mg of sildenafil, once per day. The format is in vivo, human. An excerpt:
A physician, who is also the inventor of the present invention, performed an arthroscopic surgical procedure on a patient suffering from a loose cartilage body in the setting of severe arthritis in their knee. The patient was a competitive senior tennis player and declined knee replacement for that reason. The purpose of the procedure was merely to remove a loose body and abate the mechanical symptoms it caused. Approximately one year later, the patient returned to their physician for evaluation of what was believed to be an unrelated ganglion cyst on the same knee. […] Upon questioning by their physician, the patient explained that the only difference in their medical history (including lifestyle, activity, new illness and medications) between the time of the first and second MRIs was that they started using a phosphodiesterase inhibitor. Specifically, the patient started using Viagra® (50 mg of sildenafil, once per day). There were no other changes in the interval medical history.

Regarding `CCCc1nn(C)c2c(=O)[nH]c(-c3cc(S(=O)(=O)N4CCN(C)CC4)ccc3OCC)nc12` [Viagra®, sildenafil], the “intraosseous hypertension / bone edema on coronal MRI of knee (white spots on tibial spines)” value (FIG. 2 MRI compared with FIG. 1 MRI approximately one year earlier) is given as “dissipation of the intraosseous hypertension”. The “knee pain from arthritis (reported by patient)” value (few months prior to second MRI, approximately one year after first MRI) is on record as “reduction in knee pain”.
